According to patent US7781473B2, “Heterocycle derivatives useful as selective androgen receptor modulators (SARMS)” (J & J Pharmaceutical Research & Development, LLC., priority 2004, dated 2010):

System: castrated male Sprague Dawley rats
Experiment: Ventral Prostate and Levator ani Weight in vivo Assay (agonist, stimulation of tissue weight)
Set-up: species or system rat; key: A compound was designated as agonist active if it produced greater than or equal to 20% stimulation of levator ani at 30 mg/kg; they are listed herein as “inactive” as they did not meet the specified criteria defined above; A designation of “toxic” indicates that the compound exhibited toxicity in the rats tested
Settings: mature castrated rats, test compound oral gavage up to 30 mg/kg once daily for 14 days, vehicle = 0%, testosterone propionate = 100%; for % levator ani Stimulation: levator ani wet weight; for % Prostate Stimulation: ventral prostate wet weight
Description: Ventral Prostate and Levator ani Weight in vivo Assay
Mature (150 to 200 g) castrated male Sprague Dawley rats (Charles River) were treated once daily for 14 days with test compound (usually administered by oral gavage at up to the desired dosage, up to 30 mg/kg in a volume of 1 mL, in 30% cyclodextrin or 0.5% methylcellulose vehicle), or with testosterone propionate (administered subcutaneously by injection at the nape of the neck at 5 mg/kg, in a volume of 0.1 mL in sesame oil), or with vehicle (1 mL of 30% cyclodextrin or 0.5% methylcellulose, given orally). On the fifteenth day, the rats were euthanized by asphyxiation in carbon dioxide. Ventral prostates and levator ani muscles were removed and their wet weights determined.
Test compound activity was determined as the percent stimulation of tissue weight, with the vehicle-treated control group set to zero percent and the testosterone alone-treated control group set to 100%. A compound was designated as agonist active if it produced greater than or equal to 20% stimulation of levator ani at 30 mg/kg.
Representative compounds of the present invention were tested according to the procedure described, with results as listed in Table 10 below.

Row | Structure (SMILES) | % levator ani Stimulation | % Prostate Stimulation
1 | CSCCC1=NNC(C)(C(=O)Nc2ccc(C#N)c(C(F)(F)F)c2)C1 (stereo not drawn) [compound 79] | inactive | inactive
2 | CC1(C(=O)N(C(=O)C(F)(F)F)c2ccc(C#N)c(C(F)(F)F)c2)CC(C(F)(F)F)=NN1 (stereo not drawn) [Compound 115, 3-Methyl-5-trifluoromethyl-3,4-dihydro-2H-pyrazole-3-carboxylic acid (4-cyano-3-trifluoromethyl-phenyl)-(2,2,2-trifluoro-acetyl)-amide] | inactive | inactive
3 | CC1(C(=O)Nc2ccc(C#N)c(C(F)(F)F)c2)CC(C(F)(F)C(F)(F)F)=NN1 (stereo not drawn) [Compound 98, 3-Methyl-5-pentafluoroethyl-3,4-dihydro-2H-pyrazole-3-carboxylic acid (4-cyano-3-trifluoromethyl-phenyl)-amide] | active | active
4 | CC1(C(=O)NCc2ccc(S(C)(=O)=O)cc2)CC(C(F)(F)F)=NN1 (stereo not drawn) [Compound 27, 3-Methyl-5-trifluoromethyl-3,4-dihydro-2H-pyrazole-3-carboxylic acid 4-methanesulfonyl-benzylamide] | inactive | inactive
5 | CC1(C(=O)Nc2ccc(C#N)c(C(F)(F)F)c2)CC(C2CCCC2)=NN1 (stereo not drawn) [compound 78] | inactive | inactive
6 | CC1CC(C(=O)Nc2ccc(C#N)c(C(F)(F)F)c2)(C(F)(F)F)N=N1 (stereo not drawn) [Compound 114, 5-Methyl-3-trifluoromethyl-4,5-dihydro-3H-pyrazole-3-carboxylic acid (4-cyano-3-trifluoromethyl-phenyl)-amide] | inactive | inactive
